What was measured:
CCND1 = assay: In vitro transcription-translation (IVTT) assay, CCND1 reporter; type: biochemical; conditions: HeLa S3 lysate, sfGFP/mCherry ratio, 2 hrs at 30° C.
Summary of the method: (§1)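 Reporter: mCherry, P2A, then 3×FLAG-target peptide-sfGFP fusion, IRES-initiated; HeLa S3 lysate IVTT; cpd dilutions 30 μM−0.1 μM half-log in 100% DMSO (dilution-plate conc); DNA added last; 2 h, 30° C; PBS quench.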

HEK 293T = assay: Cell viability (CellTiter-Fluor), HEK 293T; type: cell-based; conditions: Homo sapiens, 24-72 hrs
Protocol: (§2) Count and dispense 2,000-10,000 cells per well (100 μL volume) in black 96-well tissue culture microplate and let cells adhere overnight. Add compound dissolved in 100% DMSO to each well as needed and incubate cells in standard culture conditions for 24-72 hrs. Final DMSO concentration in each well should be 0.1-0.5%. At the desired time point, gently aspirate compound containing media and replace with PBS to wash. Repeat wash step for 2 total washes. Remove PBS and add 100 μL CellTiter-Fluor reagent (Promega) reagent to each well. Seal plate and incubate 1 hr at room temperature with orbital shaking. Analyze fluorescence using plate reader to quantify viable cells compared with vehicle (DMSO) control.

MCF7 = assay: Cell viability (CellTiter-Fluor), MCF7; type: cell-based; conditions: Homo sapiens, 24-72 hrs
Protocol: as §2

MYC = assay: In vitro transcription-translation (IVTT) assay, MYC reporter; type: biochemical; conditions: HeLa S3 lysate, sfGFP/mCherry ratio, 2 hrs at 30° C.
Summary of the method: as §1

MCL-1 = assay: In vitro transcription-translation (IVTT) assay, MCL-1 reporter; type: biochemical; conditions: HeLa S3 lysate, sfGFP/mCherry ratio, 2 hrs at 30° C.
Summary of the method: as §1

BCL-2 = assay: In vitro transcription-translation (IVTT) assay, BCL-2 reporter; type: biochemical; conditions: HeLa S3 lysate, sfGFP/mCherry ratio, 2 hrs at 30° C.
Source text: All reporter constructs have been cloned into the pT7CFE1-CHis plasmid (ThermoFisher #88860) using Gibson assembly procedures (NEB #E2611L). The parental pT7CFE1-CHis plasmid contains an EMCV IRES at the 5′UTR for translation initiation, a multiple-cloning site (MCS) for gene insertion, an optional C-terminal His-epitope tag, and polyA sequence in the 3′UTR to regulate mRNA stability. All reporters are designed to be inserted at the MCS to include a red fluorescent protein (mCherry), P2A self-cleaving peptide which releases the preceding mCherry protein product, and a fusion open reading frame containing a 3×FLAG epitope, a peptide sequence of interest (TEST), and green fluorescent protein (sfGFP).
Construct Plasmid Preparation: All plasmids are isolated from MACH1 cells (ThermoFisher) grown overnight in ampicillin-containing luria broth, and purified using ZymoPure Express Plasmid Midiprep Kit (Zymo Research). Constructs are sequenced verified and diluted to a working concentration of 110 ng/μL.
HeLa S3 Lysate Preparation: HeLa S3 cell pellets are acquired from Ipracell/Ipratech (Belgium) and shipped as 4 mL frozen cell pellets on dry ice for storage at −80° C. until use. The procedure for lysate preparation is as follows. Prepare 1× Lysis Buffer, cold and stored on ice:
Each preparation takes 8 cell pellets (4 ml packed volume each, approximately 1.0×10^9 cells per pellet). Thaw cell pellets from −80° C. on ice for 90 mins. Lay pellets horizontally on top of the ice and rotate every 30 mins to ensure even thawing. Once thawed, add 4 mL of cold lysis buffer to each pellet, and using a serological pipet, gently pipet up and down to break up clumps. Incubate resuspended cells in ice for an additional 30 mins (plunged into ice). During 30 min incubation, rinse and RNase-zap (Ambion) glass dounces (use loose pestle “A”), gently dry and place on ice until needed. Prepare RNase-free Eppendorf tubes for spinning and for batch storage. Add batch labels to 1.5-1.7 mL RNase-free microcentrifuge tubes (labeling scheme below). Each batch will have an extra 1.5-1.7 mL RNase-free microcentrifuge tube for 40 μL of lysate, label the top of this tube (labeling scheme below). After 30 min incubation, transfer all 8 mL of cell pellet to dounce. Cell lysis is complete after douncing 100 times. Aliquot cell lysis into 1.5-1.7 mL temporary-microcentrifuge tubes. Place tubes in centrifuge with “fins” out, and spin at 1,200×g for 5 mins. After the first spin use a 1 mL pipet to resuspend each tube and repeat spin. This acts as an additional lysis step, is more vigorous and increases lysate yield. During second spin get liquid N2 and a fresh conical tube on ice. After spin is complete, transfer supernatant (lysate) from microcentrifuge tubes into the 50 mL conical tube and keep on ice. Repeat steps 10-14 for all other cell pellets until completed. Once all cell lysate has been transferred to the 50 mL conical tube pipet to mix so the solution is homogenous. Transfer 1 mL of lysate into batch-labeled microcentrifuge tubes and flash freeze in liquid nitrogen. Be sure to pipet up and down to mix throughout transfer step. Place all tubes in the […] for long-term storage.
In vitro transcription-translation assay setup: Each assay includes a master mix containing lysate and shared components, a 96-well plate containing compound titrations for testing, a 96-well DNA plate with reporter constructs to be tested, 96-well skirted PCR plates, and 96-well flat-bottom, black, fluorescent assay plates. […]

KRAS G12D = assay: In vitro transcription-translation (IVTT) assay, KRAS G12D reporter; type: biochemical; conditions: HeLa S3 lysate, sfGFP/mCherry ratio, 2 hrs at 30° C.
Summary of the method: as §1

LS411N = assay: Cell viability (CellTiter-Fluor), LS411N; type: cell-based; conditions: Homo sapiens, LS-411N, 24-72 hrs
Protocol: as §2

NCI-H1915 = assay: Cell viability (CellTiter-Fluor), NCI-H1915; type: cell-based; conditions: 24-72 hrs
Protocol: as §2

HPAF-II = assay: Cell viability (CellTiter-Fluor), HPAF-II; type: cell-based; conditions: Homo sapiens, 24-72 hrs
Protocol: as §2

ALK = assay: In vitro transcription-translation (IVTT) assay, ALK reporter; type: biochemical; conditions: HeLa S3 lysate, sfGFP/mCherry ratio, 2 hrs at 30° C.
Summary of the method: as §1

HEPG2 = assay: Cell viability (CellTiter-Fluor), HEPG2; type: cell-based; conditions: Homo sapiens, 24-72 hrs
Protocol: as §2

KLE = assay: Cell viability (CellTiter-Fluor), KLE; type: cell-based; conditions: Homo sapiens, 24-72 hrs
Protocol: as §2

Structure (SMILES) | IC50 (CCND1) [µM] | IC50 (HEK 293T) [µM] | IC50 (MCF7) [µM] | IC50 (MYC) [µM] | IC50 (MCL-1) [µM] | IC50 (BCL-2) [µM] | IC50 (KRAS G12D) [µM] | IC50 (LS411N) [µM] | IC50 (NCI-H1915) [µM] | IC50 (HPAF-II) [µM] | IC50 (ALK) [µM] | IC50 (HEPG2) [µM] | IC50 (KLE) [µM]
COc1ccc(C[C@H]2NC[C@H](O)[C@H]2OC(=O)NCCc2cnc(N)[nH]2)cc1 [Cmpd V187594] | < 10 | ≥ 4 | 1 to 4 | < 10 | < 10 |  |  |  |  |  |  |  | 
COc1ccc(C[C@H]2NC[C@H](O)[C@H]2OC(=O)NCCc2cnn[nH]2)cc1 [Cmpd V187783] |  | 0.25 to 1 | 1 to 4 | < 10 | < 10 | < 10 |  |  |  |  |  |  | 
COc1ccc(C[C@H]2NC[C@H](O)[C@H]2OC(=O)NCC[C@H]2CCNC2)cc1 [Cmpd V187879] | < 10 | ≥ 4 | 1 to 4 | < 10 | < 10 | 10 to 20 |  |  |  |  |  |  | 
COc1ccc(C[C@H]2NC[C@H](O)[C@H]2OC(=O)NC[C@@H]2CCNC2)cc1 [V187685, (2R,3S,4S)-4-hydroxy-2-[(4-methoxyphenyl)methyl]pyrrolidin-3-yl N-[(3R)-pyrrolidin-3-ylmethyl]carbamate] |  | ≥ 4 | 1 to 4 | < 10 | < 10 | 10 to 20 | 10 to 20 |  |  |  |  |  | 
COc1ccc(C[C@H]2NC[C@H](O)[C@H]2OC(=O)NC[C@H]2CCNC2)cc1 [V187686, (2R,3S,4S)-4-hydroxy-2-(4-methoxybenzyl)pyrrolidin-3-yl (((S)-pyrrolidin-3-yl)methyl)carbamate] | 10 to 20 | ≥ 4 | 1 to 4 | < 10 |  |  | 10 to 20 | ≥ 4 | ≥ 4 | ≥ 4 | < 10 |  | 
COc1ccc(C[C@H]2NC[C@H](O)[C@H]2OC(=O)NCCn2ccnc2)cc1 [V187819, (2R,3S,4S)-4-hydroxy-2-[(4-methoxyphenyl)methyl]pyrrolidin-3-yl N-[2-(imidazol-1-yl)ethyl]carbamate] | < 10 | ≥ 4 | 1 to 4 | < 10 | < 10 |  |  |  |  |  | < 10 |  | 
COc1ccc(C[C@H]2NC[C@H](O)[C@H]2OC(=O)NCCc2nc[nH]c2C)cc1 [V187823, (2R,3S,4S)-4-hydroxy-2-[(4-methoxyphenyl)methyl]pyrrolidin-3-yl N-[2-(5-methyl-1H-imidazol-4-yl)ethyl]carbamate] | 10 to 20 | ≥ 4 |  | < 10 | < 10 | 10 to 20 |  |  |  |  |  |  | 
COc1ccc(C[C@H]2NC[C@H](O)[C@H]2OC(=O)NCCNc2ncc[nH]2)cc1 [V187825, (2R,3S,4S)-4-hydroxy-2-[(4-methoxyphenyl)methyl]pyrrolidin-3-yl N-[2-(1H-imidazol-2-ylamino)ethyl]carbamate] | 10 to 20 | ≥ 4 | ≥ 4 | 20 to 30 | 10 to 20 | 20 to 30 |  |  |  |  |  |  | 
COc1ccc(C[C@H]2NC[C@H](O)[C@H]2OC(=O)NCCNc2nccs2)cc1 [V187826, (2R,3S,4S)-4-hydroxy-2-[(4-methoxyphenyl)methyl]pyrrolidin-3-yl N-[2-(1,3-thiazol-2-ylamino)ethyl]carbamate] | 20 to 30 | 1 to 4 | 1 to 4 | < 10 | 10 to 20 | 20 to 30 |  |  |  |  |  |  | 
COc1ccc(C[C@H]2NC[C@H](O)[C@H]2OC(=O)NCCNc2cc[nH]n2)cc1 [V187827, (2R,3S,4S)-4-hydroxy-2-[(4-methoxyphenyl)methyl]pyrrolidin-3-yl N-[2-(1H-pyrazol-3-ylamino)ethyl]carbamate] | < 10 | ≥ 4 |  | < 10 | < 10 | 10 to 20 |  |  |  |  |  |  | 
COc1ccc(C[C@H]2NC[C@H](O)[C@H]2OC(=O)NCC[C@@H]2CCNC2)cc1 [V187878, (2R,3S,4S)-4-hydroxy-2-[(4-methoxyphenyl)methyl]pyrrolidin-3-yl N-{2-[(3S)-pyrrolidin-3-yl]ethyl}carbamate] |  | ≥ 4 | 0.25 to 1 | < 10 | < 10 | 10 to 20 |  | 1 to 4 | ≥ 4 | ≥ 4 |  | 1 to 4 | ≥ 4
COc1ccc(C[C@H]2NC[C@H](O)[C@H]2OC(=O)NCCc2ccncc2C#N)cc1 [V187940, (2R,3S,4S)-4-hydroxy-2-[(4-methoxyphenyl)methyl]pyrrolidin-3-yl N-[2-(3-cyanopyridin-4-yl)ethyl]carbamate] | < 10 | 0.25 to 1 | 1 to 4 | < 10 | < 10 | < 10 |  |  |  |  |  |  | 
CNC(=O)CNC(=O)O[C@@H]1[C@@H](O)CN[C@@H]1Cc1ccc(OC)cc1 [V188017, (2R,3S,4S)-4-hydroxy-2-[(4-methoxyphenyl)methyl]pyrrolidin-3-yl N-[(methylcarbamoyl)methyl]carbamate] | 10 to 20 | 1 to 4 | 1 to 4 |  | < 10 | 10 to 20 |  |  |  |  |  |  | 
COc1ccc(C[C@H]2NC[C@H](O)[C@H]2OC(=O)NCc2cc[nH]c(=O)c2)cc1 [V188053, (2R,3S,4S)-4-hydroxy-2-[(4-methoxyphenyl)methyl]pyrrolidin-3-yl N-[(2-oxo-1H-pyridin-4-yl)methyl]carbamate] | < 10 | 1 to 4 | 1 to 4 | < 10 | < 10 |  |  | 1 to 4 | 1 to 4 | 1 to 4 |  |  | 1 to 4
